Laboratory results from ChEMBL document CHEMBL1687817, “Tigecycline population pharmacokinetics in patients with community- or hospital-acquired pneumonia” (Antimicrob Agents Chemother, 2010).

Key:
Format in all cases: ADME, organism-based
[1] = Clearance in patient with community or hospital-acquired pneumonia at […], iv loading dose followed by […] administered every 12 hrs; details: human, in vivo
Homo sapiens [2] = assay: Volume of distribution at steady state in patient with community or hospital-acquired pneumonia at […], iv loading dose followed by […] administered every 12 hrs; details: in vivo
Homo sapiens [3] = assay: Distributional clearance in patient with community or hospital-acquired pneumonia at […], iv loading dose followed by […] administered every 12 hrs; details: in vivo
[4] = Volume of distribution in central compartment in patient with community or hospital-acquired pneumonia at […], iv loading dose followed by […] administered every 12 hrs; details: human, in vivo, read-out: Vc

SMILES: CN(C)c1cc(NC(=O)CNC(C)(C)C)c(O)c2c1C[C@H]1C[C@H]3[C@H](N(C)C)C(O)=C(C(N)=O)C(=O)[C@@]3(O)C(O)=C1C2=O [TIGECYCLINE]
- clearance [1]: 320 mL/min
- Vdss (Homo sapiens [2]): 398 L
- CLd (Homo sapiens [3]): 85.1 L/h
- Vd [4]: 65.2 L
